US10918645B2 (LIFEARC, priority 2016, dated 2021)

How the values were obtained:
Assay type in all cases: biochemical
Conditions in all cases: 1 μM inhibitor concentration
TTK = TTK (Homo sapiens (Human), UniProt P33981); assay: TTK kinase selectivity assay
Procedure: TTK (5-20 mU diluted in 50 mM Tris pH 7.5, 0.1 mM EGTA, 0.1% 0-mercaptoethanol, 1 mg/ml BSA) is assayed against […] in a final volume of […] containing 50 mM Tris pH 7.5, 0.1 mM EGTA, 0.3 mM […], 10 mM magnesium acetate and 0.02 mM [33P-γ-ATP] (50-1000 cpm/pmole) and incubated for 30 min at room temperature. Assays are stopped by addition of 5 μl of 0.5 M (3%) orthophosphoric acid and then harvested onto P81 Unifilter plates with a wash buffer of 50 mM orthophosphoric acid.

MLK1 = MLK1 (Homo sapiens (Human), UniProt P80192); assay: MLK1 kinase selectivity assay
Procedure: MLK1 (5-20 mU diluted in 50 mM Tris pH 7.5, 0.1 mM EGTA, 0.1% 0-mercaptoethanol, 1 mg/ml BSA) is assayed against MBP in a final volume of 25.5 μl containing 50 mM Tris pH 7.5, 0.1 mM EGTA, 0.33 mg/ml MBP, 10 mM magnesium acetate and 0.02 mM [33P-γ-ATP] (50-1000 cpm/pmole) and incubated for 30 min at room temperature. Assays are stopped by addition of 5 μl of 0.5 M (3%) orthophosphoric acid and then harvested onto P81 Unifilter plates with a wash buffer of 50 mM orthophosphoric acid.

BRSK2 = BRSK2 (Homo sapiens (Human), UniProt Q8IWQ3); assay: BRSK2 kinase selectivity assay
Procedure: BRSK2 (5-20 mU diluted in 50 mM Tris pH 7.5, 0.1 mM EGTA, 0.1% b-mercaptoethanol, 1 mg/ml BSA) is assayed against a substrate peptide ([…]) in a final volume of 25.5 μl containing 50 mM Tris pH 7.5, 0.05% b-mercaptoethanol, 300 μM substrate peptide, 10 mM magnesium acetate and 0.05 mM [33P-g-ATP] (50-1000 cpm/pmole) and incubated for 30 min at room temperature. Assays are stopped by addition of 5 μl of 0.5 M (3%) orthophosphoric acid and then harvested onto P81 Unifilter plates with a wash buffer of 50 mM orthophosphoric acid.

PKCz = PKCz (Homo sapiens (Human), UniProt Q05513); assay: PKCz kinase selectivity assay
Procedure: PKC zeta (5-20 mU diluted in 50 mM Tris pH 7.5, 0.1 mM EGTA, 0.1% b-mercaptoethanol, 1 mg/ml BSA, 100 μM Vanadate) is assayed against a substrate peptide ([…]) in a final volume of 25.5 μl containing 50 mM Tris pH 7.5, 0.05% b-mercaptoethanol, […], 300 μM substrate peptide, 10 mM magnesium acetate and 0.005 mM [33P-g-ATP] (50-1000 cpm/pmole) and incubated for 30 min at room temperature. Assays are stopped by addition of 5 μl of 0.5 M (3%) orthophosphoric acid and then harvested onto P81 Unifilter plates with a wash buffer of 50 mM orthophosphoric acid.

SmMLCK = SmMLCK (Homo sapiens (Human), UniProt Q15746); assay: SmMLCK kinase selectivity assay
Procedure: 5-20 mU of smMLCK (diluted in 50 mM Hepes (pH 7.5), 0.1 mM EGTA, 1 mg/ml BSA, 0.1%, b-Mercaptoethanol) is assayed against substrate peptide ([…]) in a final volume of 25.5 μl containing 50 mM Hepes (pH 7.5), 0.1 mM EGTA, 5 mM CaCl2, […] Calmodulin, 300 μM substrate peptide, 10 mM magnesium acetate and 0.05 mM [33P-g-ATP](500-1000 cpm/pmole) and incubated for 30 mins at room temperature. Assays are stopped by addition of 5 μl of 0.5M (3%) orthophosphoric acid. Assays are harvested onto P81 Unifilter plates using a wash buffer of 50 mM orthophosphoric acid.

IKKb = IKKb (Homo sapiens (Human), UniProt O14920); assay: IKKb kinase selectivity assay
Procedure: 5-20 mU of IKKb (diluted in 50 mM Tris (pH 7.5), 0.1 mM EGTA, 1 mg/ml BSA, 0.1%, b-Mercaptoethanol) is assayed against substrate peptide ([…]) in a final volume of […] containing 50 mM Tris (pH 7.5), 0.1 mM EGTA, 0.1%, b-Mercaptoethanol, 300 μM substrate peptide, 10 mM magnesium acetate and 0.005 mM [33P-g-ATP](500-1000 cpm/pmole) and incubated for 30 mins at room temperature. Assays are stopped by addition of 5 μl of 0.5M (3%) orthophosphoric acid. Assays are harvested onto P81 Unifilter plates using a wash buffer of 50 mM orthophosphoric acid.

CHK2 = CHK2 (Homo sapiens (Human), UniProt O96017); assay: CHK2 kinase selectivity assay
Procedure: CHK2 (5-20 mU diluted in 20 mM MOPS pH 7.5, 1 mM EDTA, 0.1% b-mercaptoethanol, 0.01% Brij-35, 5% glycerol, 1 mg/ml BSA) is assayed against CHKtide substrate peptide ([…]) in a final volume of 25.5 μl containing 8 mM MOPS pH 7.0, 0.2 mM EDTA, 200 μM CHKtide, 10 mM magnesium acetate and 0.02 mM [33P-g-ATP](50-1000 cpm/pmole) and incubated for 30 min at room temperature Assays are stopped by addition of 5 μl of 0.5 M (3%) orthophosphoric acid and then harvested onto P81 Unifilter plates with a wash buffer of 50 mM orthophosphoric acid.

p38aMAPK = p38aMAPK (Homo sapiens (Human), UniProt Q16539); assay: p38aMAPK kinase selectivity assay
Procedure: SAPK 2a/p38 (5-20 mU diluted in 50 mM Tris pH 7.5, 0.1 mM EGTA, 0.1 mM Na3VO4, 0.1% b-mercaptoethanol, 1 mg/ml BSA) is assayed against MBP in a final volume of 25.5 μl containing 25 mM Tris pH 7.5, 0.1 mM EGTA, 0.33 mg/ml MBP, 10 mM magnesium acetate and 0.05 mM [33P-g-ATP] (50-1000 cpm/pmole) and incubated for 30 min at room temperature. Assays are stopped by addition of 5 μl of 0.5 M (3%) orthophosphoric acid and then harvested onto P81 Unifilter plates with a wash buffer of 50 mM orthophosphoric acid.

Sequence of IKKb (O14920 whole entry, species assumed): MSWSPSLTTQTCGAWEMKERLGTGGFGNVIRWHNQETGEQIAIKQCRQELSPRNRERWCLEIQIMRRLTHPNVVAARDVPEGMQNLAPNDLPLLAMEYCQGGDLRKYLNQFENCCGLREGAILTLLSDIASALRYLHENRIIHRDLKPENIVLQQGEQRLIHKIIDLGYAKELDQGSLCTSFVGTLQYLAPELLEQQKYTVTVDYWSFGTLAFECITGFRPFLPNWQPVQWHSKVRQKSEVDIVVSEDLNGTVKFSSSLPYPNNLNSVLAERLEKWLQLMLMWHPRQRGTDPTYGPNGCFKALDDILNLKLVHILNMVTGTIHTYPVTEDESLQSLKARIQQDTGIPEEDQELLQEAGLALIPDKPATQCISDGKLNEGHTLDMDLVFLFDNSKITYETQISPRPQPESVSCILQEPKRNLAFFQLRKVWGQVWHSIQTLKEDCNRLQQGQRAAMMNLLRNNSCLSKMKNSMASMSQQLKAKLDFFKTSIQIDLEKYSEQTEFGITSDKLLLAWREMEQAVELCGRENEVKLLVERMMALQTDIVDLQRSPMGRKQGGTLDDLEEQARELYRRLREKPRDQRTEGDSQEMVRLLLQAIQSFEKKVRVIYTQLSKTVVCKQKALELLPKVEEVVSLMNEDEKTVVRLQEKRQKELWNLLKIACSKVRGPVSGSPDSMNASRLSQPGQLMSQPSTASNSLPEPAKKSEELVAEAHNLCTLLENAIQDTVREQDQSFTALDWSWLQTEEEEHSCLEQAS
Sequence of PKCz (Q05513 whole entry): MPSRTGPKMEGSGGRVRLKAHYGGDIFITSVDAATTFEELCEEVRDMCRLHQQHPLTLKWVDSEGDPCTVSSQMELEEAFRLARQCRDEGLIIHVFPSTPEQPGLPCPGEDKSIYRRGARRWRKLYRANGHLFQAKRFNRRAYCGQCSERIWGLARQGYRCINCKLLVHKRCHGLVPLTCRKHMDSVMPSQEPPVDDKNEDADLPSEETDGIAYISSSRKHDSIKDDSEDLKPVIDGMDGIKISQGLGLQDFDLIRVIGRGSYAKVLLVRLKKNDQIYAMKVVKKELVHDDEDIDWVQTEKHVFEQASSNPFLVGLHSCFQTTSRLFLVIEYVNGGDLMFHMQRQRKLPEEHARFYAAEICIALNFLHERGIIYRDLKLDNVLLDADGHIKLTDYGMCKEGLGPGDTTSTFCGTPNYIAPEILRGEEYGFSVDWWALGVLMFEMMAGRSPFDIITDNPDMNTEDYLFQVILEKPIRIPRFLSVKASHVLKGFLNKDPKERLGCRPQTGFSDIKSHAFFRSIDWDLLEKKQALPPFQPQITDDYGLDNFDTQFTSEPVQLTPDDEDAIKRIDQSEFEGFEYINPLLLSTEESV
Sequence of BRSK2 (Q8IWQ3 whole entry, species assumed): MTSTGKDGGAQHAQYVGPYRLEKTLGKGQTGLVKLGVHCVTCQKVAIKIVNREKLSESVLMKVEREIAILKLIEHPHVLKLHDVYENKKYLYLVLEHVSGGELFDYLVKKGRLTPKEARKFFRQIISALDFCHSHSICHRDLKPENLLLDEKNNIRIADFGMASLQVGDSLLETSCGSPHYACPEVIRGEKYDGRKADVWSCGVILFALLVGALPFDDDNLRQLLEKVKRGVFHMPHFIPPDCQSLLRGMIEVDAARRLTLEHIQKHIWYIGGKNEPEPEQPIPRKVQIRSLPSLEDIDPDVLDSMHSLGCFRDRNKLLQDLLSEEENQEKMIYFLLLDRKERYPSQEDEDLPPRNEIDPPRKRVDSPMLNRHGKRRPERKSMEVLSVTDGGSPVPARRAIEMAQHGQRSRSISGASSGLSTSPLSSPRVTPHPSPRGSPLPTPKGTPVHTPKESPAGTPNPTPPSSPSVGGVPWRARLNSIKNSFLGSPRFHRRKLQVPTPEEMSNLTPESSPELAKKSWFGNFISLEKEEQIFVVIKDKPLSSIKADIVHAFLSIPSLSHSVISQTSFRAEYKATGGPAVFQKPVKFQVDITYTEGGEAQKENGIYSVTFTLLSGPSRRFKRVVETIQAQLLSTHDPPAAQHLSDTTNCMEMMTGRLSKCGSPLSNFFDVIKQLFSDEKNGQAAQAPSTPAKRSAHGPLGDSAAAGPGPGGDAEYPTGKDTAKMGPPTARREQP
Sequence of p38aMAPK (Q16539 whole entry): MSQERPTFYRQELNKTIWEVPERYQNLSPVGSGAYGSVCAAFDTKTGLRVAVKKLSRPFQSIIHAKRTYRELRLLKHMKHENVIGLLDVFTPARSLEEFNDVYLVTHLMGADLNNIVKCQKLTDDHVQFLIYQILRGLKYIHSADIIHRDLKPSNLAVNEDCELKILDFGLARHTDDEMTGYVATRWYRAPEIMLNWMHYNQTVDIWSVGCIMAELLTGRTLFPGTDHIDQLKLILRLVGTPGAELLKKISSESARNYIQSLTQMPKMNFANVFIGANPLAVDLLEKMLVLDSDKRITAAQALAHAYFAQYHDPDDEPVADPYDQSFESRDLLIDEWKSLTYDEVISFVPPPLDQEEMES
Sequence of CHK2 (O96017 whole entry, species assumed): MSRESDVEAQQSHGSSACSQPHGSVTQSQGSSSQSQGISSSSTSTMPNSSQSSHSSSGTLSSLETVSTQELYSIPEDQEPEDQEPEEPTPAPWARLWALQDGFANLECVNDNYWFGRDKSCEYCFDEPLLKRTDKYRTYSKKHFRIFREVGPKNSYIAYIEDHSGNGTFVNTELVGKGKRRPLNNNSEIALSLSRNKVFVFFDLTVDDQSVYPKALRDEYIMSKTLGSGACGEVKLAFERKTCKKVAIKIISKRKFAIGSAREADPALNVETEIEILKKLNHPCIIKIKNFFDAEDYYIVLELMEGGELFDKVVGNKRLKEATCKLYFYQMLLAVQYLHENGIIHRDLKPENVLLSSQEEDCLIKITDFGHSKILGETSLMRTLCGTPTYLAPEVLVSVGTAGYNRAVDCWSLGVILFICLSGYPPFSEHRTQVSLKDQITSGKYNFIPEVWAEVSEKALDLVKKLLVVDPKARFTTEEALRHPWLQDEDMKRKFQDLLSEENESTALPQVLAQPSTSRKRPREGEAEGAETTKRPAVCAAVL
Sequence of MLK1 (P80192 whole entry, species assumed): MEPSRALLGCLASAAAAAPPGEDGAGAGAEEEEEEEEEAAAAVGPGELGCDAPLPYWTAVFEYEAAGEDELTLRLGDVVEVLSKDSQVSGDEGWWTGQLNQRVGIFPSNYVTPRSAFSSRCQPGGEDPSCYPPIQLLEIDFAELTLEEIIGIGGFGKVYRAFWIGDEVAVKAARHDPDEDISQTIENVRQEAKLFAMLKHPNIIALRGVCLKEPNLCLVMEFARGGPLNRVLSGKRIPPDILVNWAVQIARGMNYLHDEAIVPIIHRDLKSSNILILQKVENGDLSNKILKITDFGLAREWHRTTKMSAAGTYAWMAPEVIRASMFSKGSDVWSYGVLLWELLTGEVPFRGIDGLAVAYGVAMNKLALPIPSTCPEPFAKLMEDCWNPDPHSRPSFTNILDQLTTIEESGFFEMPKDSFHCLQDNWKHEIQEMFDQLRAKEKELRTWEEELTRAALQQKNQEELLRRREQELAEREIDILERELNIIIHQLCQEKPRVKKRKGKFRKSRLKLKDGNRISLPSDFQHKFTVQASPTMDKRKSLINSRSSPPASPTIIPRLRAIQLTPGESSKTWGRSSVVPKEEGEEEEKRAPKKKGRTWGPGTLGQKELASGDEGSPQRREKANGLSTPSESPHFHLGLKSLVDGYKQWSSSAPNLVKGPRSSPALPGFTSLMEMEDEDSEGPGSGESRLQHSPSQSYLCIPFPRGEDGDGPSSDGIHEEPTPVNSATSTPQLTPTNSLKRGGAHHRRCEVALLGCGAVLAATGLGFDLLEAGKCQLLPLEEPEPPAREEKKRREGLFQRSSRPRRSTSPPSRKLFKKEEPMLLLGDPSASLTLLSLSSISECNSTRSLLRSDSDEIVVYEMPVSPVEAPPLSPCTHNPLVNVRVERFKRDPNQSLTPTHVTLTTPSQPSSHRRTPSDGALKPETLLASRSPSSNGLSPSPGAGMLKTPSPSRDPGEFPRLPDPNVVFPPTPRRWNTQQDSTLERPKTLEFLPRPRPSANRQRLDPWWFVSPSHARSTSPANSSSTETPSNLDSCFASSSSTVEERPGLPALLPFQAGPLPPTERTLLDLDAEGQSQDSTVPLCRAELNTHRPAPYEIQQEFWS
Sequence of TTK (P33981 whole entry, species assumed): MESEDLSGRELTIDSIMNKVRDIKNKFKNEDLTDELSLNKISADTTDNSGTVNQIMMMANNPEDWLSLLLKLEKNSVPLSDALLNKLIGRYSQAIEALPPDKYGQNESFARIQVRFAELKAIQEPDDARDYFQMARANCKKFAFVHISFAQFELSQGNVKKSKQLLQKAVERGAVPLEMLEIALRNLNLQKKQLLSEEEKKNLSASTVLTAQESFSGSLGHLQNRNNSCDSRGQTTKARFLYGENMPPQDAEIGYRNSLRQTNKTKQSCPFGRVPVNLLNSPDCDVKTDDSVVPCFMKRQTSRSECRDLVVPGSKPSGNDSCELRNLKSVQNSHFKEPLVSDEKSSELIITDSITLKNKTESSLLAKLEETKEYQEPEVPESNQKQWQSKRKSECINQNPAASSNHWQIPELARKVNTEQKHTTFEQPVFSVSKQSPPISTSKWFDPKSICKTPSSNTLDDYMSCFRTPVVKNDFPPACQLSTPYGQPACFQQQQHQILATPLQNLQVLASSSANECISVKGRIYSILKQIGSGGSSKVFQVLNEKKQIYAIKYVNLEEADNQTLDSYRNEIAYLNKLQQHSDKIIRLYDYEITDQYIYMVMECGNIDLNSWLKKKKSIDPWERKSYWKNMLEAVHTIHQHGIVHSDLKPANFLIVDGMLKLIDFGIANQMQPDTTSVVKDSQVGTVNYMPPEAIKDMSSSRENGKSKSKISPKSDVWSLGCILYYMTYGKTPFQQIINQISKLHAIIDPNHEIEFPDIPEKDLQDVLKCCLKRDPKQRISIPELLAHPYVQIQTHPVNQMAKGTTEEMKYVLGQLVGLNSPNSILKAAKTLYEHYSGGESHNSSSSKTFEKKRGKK

Row | Compound | percentage inhibition of TTK (TTK) [percentage] | percentage inhibition of MLK1 (MLK1) [percentage] | percentage inhibition of BRSK2 (BRSK2) [percentage] | percentage inhibition of PKCz (PKCz) [percentage] | percentage inhibition of SmMLCK (SmMLCK) [percentage] | percentage inhibition of IKKb (IKKb) [percentage] | percentage inhibition of CHK2 (CHK2) [percentage] | percentage inhibition of p38aMAPK (p38aMAPK) [percentage]
1 | c1cc2[nH]nc3c2c(n1)N(C1CCC1)CCC3 [Example 22, 6-cyclobutyl-6,7,8,9-tetrahydro-2H-1,2,5,6-tetraazabenzo[cd]azulene] | 0 | 0 | 0 | 0 | 16 | 2 | 11 | 4
2 | c1cc2[nH]nc3c2c(n1)N(C1CCCC1)CCC3 [Example 23, 6-cyclopentyl-6,7,8,9-tetrahydro-2H-1,2,5,6-tetraazabenzo[cd]azulene] | 0 | 0 | 0 | 0 | 15 | 0 | 0 | 0
3 | c1cc2[nH]nc3c2c(n1)N(C1CCOCC1)CCC3 [Example 29, 6-(tetrahydro-2H-pyran-4-yl)-6,7,8,9-tetrahydro-2H-1,2,5,6-tetraazabenzo[cd]azulene] | 2 | 0 | 2 | 0 | 11 | 0 | 2 | 0
4 | CN1CCC(N2Cc3ccccc3-c3n[nH]c4ccnc2c34)CC1 [Example 55] | 35 | 24 | 50 | 0 | 16 | 6 | 80 | 6
5 | CC(C)n1ncc2c1CN(C1CCN(C)CC1)c1nccc3[nH]nc-2c13 [Example 68] | 2 | 12 | 31 | 1 | 9 | 4 | 53 | 0
